Laboratory results reported in patent US8445474B2 (Knopp Neurosciences, Inc., priority 2006, dated 2013).
Read-outs that look alike come from different tables or passages of the source.

What was measured:
[1] = system: rodents; conditions: single oral dose, and above; cited from earlier work
[2] = in vivo; conditions: male, beagle, dog
Method: (§1) Doses were administered orally by gavage and clinical observations were taken continuously following dosing: hourly for the first four hours, and then twice daily cage-side observations for the duration of the inter-dose or post-dose interval. Observations were made of clinical signs, mortality, injury and availability of food and water. Animals were fasted for 24 hr prior to dosing. Dogs in each group were exposed to only one drug, or the combination; each dose was administered only once, with a subsequent dose administered after a recovery period of 4 days.

[3] = system: male beagle dogs
Method: as §1

[4] = system: rodents
[5] = system: monkeys; conditions: single oral dose; cited from earlier work
[6] = system: human subjects; conditions: cited from earlier work
[7] = system: dogs; conditions: single oral dose, and above; cited from earlier work
[8] = Dissolution of exploratory combination capsules in simulated gastric fluid (SGF), chiral HPLC; type: physicochemical; conditions: for Average Concentrations of the enantiomer, Experiments SGF (1) and SGF (2) / Concentration of the enantiomer in SGF (1) Vessel / Concentration of the enantiomer in SGF (2) Vessel: combination capsule in 10 mL SGF pH 1.2
Method: Drug Formulation. […] Normal phase, chiral HPLC was used for monitoring the release of R(+) pramipexole and S(−) pramipexole in simulated gastric fluid (SGF).
Dissolution Study. SGF (pH=1.2) was prepared by diluting 1 g of sodium chloride and 7 mL of concentrated HCl to 1 L with HPLC grade water. The dissolution experiment was run as follows: an exploratory combination capsule was placed in 10 mL of SGF and shaken under ambient conditions at 600 RPM for 60 minutes. Aliquots of 100 μL were pulled from the same sample vessel at various time points. The 100 μL samples of SGF solution were evaporated using a nitrogen bleed and heat and the residues were dissolved in the HPLC diluent and filtered through 0.45 μm syringe filters. […] This experiment was performed in duplicate (experiment numbers SGF (1) (see Table 4) and SGF (2) (see Table 5)) and the results are also provided in average values (see Table 6). The tables and figures below summarize the results from these experiments.

[9] = target: human cloned dopamine receptor D5 (Homo sapiens, UniProt P21918); conditions: historic data; cited from earlier work
human cloned dopamine receptor D5, sequence (P21918 whole entry): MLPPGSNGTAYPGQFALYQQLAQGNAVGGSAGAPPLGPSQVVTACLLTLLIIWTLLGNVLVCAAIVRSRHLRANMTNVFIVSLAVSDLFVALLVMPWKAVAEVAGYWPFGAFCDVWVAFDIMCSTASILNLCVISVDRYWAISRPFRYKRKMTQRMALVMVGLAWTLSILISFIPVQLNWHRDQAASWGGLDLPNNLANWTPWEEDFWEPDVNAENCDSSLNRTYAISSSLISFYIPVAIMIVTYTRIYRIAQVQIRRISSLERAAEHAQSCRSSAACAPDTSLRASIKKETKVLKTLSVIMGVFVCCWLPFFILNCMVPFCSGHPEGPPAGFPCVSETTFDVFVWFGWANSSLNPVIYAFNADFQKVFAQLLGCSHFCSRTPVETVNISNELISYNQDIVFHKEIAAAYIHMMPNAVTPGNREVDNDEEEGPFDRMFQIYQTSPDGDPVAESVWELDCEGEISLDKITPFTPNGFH

[10] = male, beagle, dog, in vivo, 1 study day
[11] = male, beagle, dog, in vivo, 8 study day
[12] = non-naïve male beagle dogs, single oral dose
[13] = 4320 minutes, stored benchtop in clear vial

CCCN[C@H]1CCc2nc(N)sc2C1 [S(−) pramipexole]
doses at which deaths occurred [1]: 70 to 105 mg/kg
MTD at 4 days [2]: 4.2 µg/kg
human dose equivalent to dog MTD ([3]; 70 kg individual): 0.30 mg
human dose equivalent to dog NOAEL ([3]; 70 kg individual): 0.05 mg
human dose equivalent to dog NOAEL ([3]; human equivalent): 0.7 µg/kg
Feces mucoid (animals affected/total) ([3]; male, beagle, dog, in vivo): 0/4
Feces soft (animals affected/total) ([3]; male, beagle, dog, in vivo): 0/4
Feces watery (animals affected/total) ([3]; male, beagle, dog, in vivo): 0/4
Lacrimation (animals affected/total) ([3]; male, beagle, dog, in vivo): 0/4
Pupils dilated (animals affected/total) ([3]; male, beagle, dog, in vivo): 0/4
Skin warm to touch (animals affected/total) ([3]; male, beagle, dog, in vivo): 0/4
Activity decreased (animals affected/total) [3, 10]: 3/4
Convulsions-clonic (animals affected/total) [3, 10]: 0/4
Emesis (animals affected/total) [3, 10]: 3/4
Salivation (animals affected/total) [3, 10]: 0/4
Tremors (animals affected/total) [3, 10]: 1/4
Activity decreased (animals affected/total) [3, 11]: 0/4
Emesis (animals affected/total) [3, 11]: 0/4
Tremors (animals affected/total) [3, 11]: 0/4
MTD [3, 12]: 7.5 µg/kg
NOAEL [3, 12]: 1.25 µg/kg
human dose equivalent to rodent lethal dose ([4]; human equivalent): 7 to 12 mg/kg
human dose equivalent to rodent lethal dose ([4]; rodents, in vivo): 500 to 850 mg
dose at which major excitation was displayed [5]: 3.5 mg/kg
dose shown to cause somnolence [6]: 1.5 mg
initial, single doses not tolerated [6]: greater than 0.20 milligrams
dose at which vomiting occurred [7]: ≥ 0.7 µg/kg
Average Concentrations of the enantiomer, Experiments SGF (1) and SGF (2) ([8]; 3 minutes): 0 mg/mL
Concentration of the enantiomer in SGF (1) Vessel ([8]; 3 minutes): 0 mg/mL
Concentration of the enantiomer in SGF (2) Vessel ([8]; 3 minutes): 0 mg/mL
Average Concentrations of the enantiomer, Experiments SGF (1) and SGF (2) ([8]; 4 minutes): 0 mg/mL
Concentration of the enantiomer in SGF (1) Vessel ([8]; 4 minutes): 0 mg/mL
Concentration of the enantiomer in SGF (2) Vessel ([8]; 4 minutes): 0 mg/mL
Average Concentrations of the enantiomer, Experiments SGF (1) and SGF (2) ([8]; 6 minutes): 0 mg/mL
Concentration of the enantiomer in SGF (1) Vessel ([8]; 6 minutes): 0 mg/mL
Concentration of the enantiomer in SGF (2) Vessel ([8]; 6 minutes): 0 mg/mL
Average Concentrations of the enantiomer, Experiments SGF (1) and SGF (2) ([8]; 8 minutes): 0 mg/mL
Concentration of the enantiomer in SGF (1) Vessel ([8]; 8 minutes): 0 mg/mL
Concentration of the enantiomer in SGF (2) Vessel ([8]; 8 minutes): 0 mg/mL
Average Concentrations of the enantiomer, Experiments SGF (1) and SGF (2) ([8]; 10 minutes): 0.003489 mg/mL
Concentration of the enantiomer in SGF (1) Vessel ([8]; 10 minutes): 0.006978 mg/mL
Concentration of the enantiomer in SGF (2) Vessel ([8]; 10 minutes): 0 mg/mL
Average Concentrations of the enantiomer, Experiments SGF (1) and SGF (2) ([8]; 11 minutes): 0.00738 mg/mL
Concentration of the enantiomer in SGF (1) Vessel ([8]; 11 minutes): 0.008956 mg/mL
Concentration of the enantiomer in SGF (2) Vessel ([8]; 11 minutes): 0.005803 mg/mL
Average Concentrations of the enantiomer, Experiments SGF (1) and SGF (2) ([8]; 12 minutes): 0.009645 mg/mL
Concentration of the enantiomer in SGF (1) Vessel ([8]; 12 minutes): 0.01083 mg/mL
Concentration of the enantiomer in SGF (2) Vessel ([8]; 12 minutes): 0.00846 mg/mL
Average Concentrations of the enantiomer, Experiments SGF (1) and SGF (2) ([8]; 14 minutes): 0.015 mg/mL
Concentration of the enantiomer in SGF (1) Vessel ([8]; 14 minutes): 0.01534 mg/mL
Concentration of the enantiomer in SGF (2) Vessel ([8]; 14 minutes): 0.01466 mg/mL
Average Concentrations of the enantiomer, Experiments SGF (1) and SGF (2) ([8]; 15 minutes): 0.01769 mg/mL
Concentration of the enantiomer in SGF (1) Vessel ([8]; 15 minutes): 0.01769 mg/mL
Concentration of the enantiomer in SGF (2) Vessel ([8]; 15 minutes): 0.0177 mg/mL
Average Concentrations of the enantiomer, Experiments SGF (1) and SGF (2) ([8]; 17 minutes): 0.02176 mg/mL
Concentration of the enantiomer in SGF (1) Vessel ([8]; 17 minutes): 0.02157 mg/mL
Concentration of the enantiomer in SGF (2) Vessel ([8]; 17 minutes): 0.02196 mg/mL
Average Concentrations of the enantiomer, Experiments SGF (1) and SGF (2) ([8]; 18 minutes): 0.02294 mg/mL
Concentration of the enantiomer in SGF (1) Vessel ([8]; 18 minutes): 0.02223 mg/mL
Concentration of the enantiomer in SGF (2) Vessel ([8]; 18 minutes): 0.02365 mg/mL
Average Concentrations of the enantiomer, Experiments SGF (1) and SGF (2) ([8]; 20 minutes): 0.028 mg/mL
Concentration of the enantiomer in SGF (1) Vessel ([8]; 20 minutes): 0.02733 mg/mL
Concentration of the enantiomer in SGF (2) Vessel ([8]; 20 minutes): 0.02867 mg/mL
Average Concentrations of the enantiomer, Experiments SGF (1) and SGF (2) ([8]; 25 minutes): 0.03742 mg/mL
Concentration of the enantiomer in SGF (1) Vessel ([8]; 25 minutes): 0.03764 mg/mL
Concentration of the enantiomer in SGF (2) Vessel ([8]; 25 minutes): 0.03721 mg/mL
Average Concentrations of the enantiomer, Experiments SGF (1) and SGF (2) ([8]; 30 minutes): 0.04566 mg/mL
Concentration of the enantiomer in SGF (1) Vessel ([8]; 30 minutes): 0.0489 mg/mL
Concentration of the enantiomer in SGF (2) Vessel ([8]; 30 minutes): 0.04242 mg/mL
Average Concentrations of the enantiomer, Experiments SGF (1) and SGF (2) ([8]; 60 minutes): 0.05654 mg/mL
Concentration of the enantiomer in SGF (1) Vessel ([8]; 60 minutes): 0.05197 mg/mL
Concentration of the enantiomer in SGF (2) Vessel ([8]; 60 minutes): 0.0611 mg/mL
Average Concentrations of the enantiomer, Experiments SGF (1) and SGF (2) [8, 13]: 0.09309 mg/mL
Concentration of the enantiomer in SGF (1) Vessel [8, 13]: 0.09367 mg/mL
Concentration of the enantiomer in SGF (2) Vessel [8, 13]: 0.0925 mg/mL
course of release from the capsule ([8]; SGF pH 1.2, 60 minutes): did not go to completion after one hour
Ki [9]: > 50 µM
